# Source: US8969406B2, “Use of compound for inhibiting glutathione s-transferase omega 1 activity and method for synthesizing the same” (China Medical University, priority 2013, dated 2015)
# Where two headings read alike, the source gives them in different places.
# Assays:
# [1] = test system: multidrug-resistant nasopharyngeal carcinoma cell line (KB-Vin); assay: In vitro cytotoxicity assay, cancer cell growth inhibition, KB-Vin cell
# Description: (§1) For evaluating the in vitro growth inhibitory concentrations ([…], μM) of the compound represented by Formula 1 of the present disclosure, human oralepithelial carcinoma cell line (KB), multidrug-resistant nasopharyngeal carcinoma cell line (KB-Vin), human lung adenocarcinoma cell line (A549), and prostate cancer cell line (DU145) were used in the following experiment. The GI50 values of Paclitaxel, an anticancer chemotherapy drug, were used as control.
# [2] = test system: human oralepithelial carcinoma cell line (KB); assay: In vitro cytotoxicity assay, cancer cell growth inhibition, KB cell
# Description: as §1
# [3] = test system: prostate cancer cell line (DU145); assay: In vitro cytotoxicity assay, cancer cell growth inhibition, DU145 cell
# Description: as §1
# [4] = test system: human lung adenocarcinoma cell line (A549); assay: In vitro cytotoxicity assay, cancer cell growth inhibition, A549 cell
# Description: as §1
# GSTO1 = biological target: T1, GSTO1 (Homo sapiens, UniProt P78417); assay: Enzyme activity assay of GST omega 1 (GSTO1) with 4NPG substrate; type: biochemical; conditions: 2 nM GSTO1, 0.5 mM 4NPG, 30 min 25° C. pre-reaction, O.D.305
# T1 sequence (P78417 1-241): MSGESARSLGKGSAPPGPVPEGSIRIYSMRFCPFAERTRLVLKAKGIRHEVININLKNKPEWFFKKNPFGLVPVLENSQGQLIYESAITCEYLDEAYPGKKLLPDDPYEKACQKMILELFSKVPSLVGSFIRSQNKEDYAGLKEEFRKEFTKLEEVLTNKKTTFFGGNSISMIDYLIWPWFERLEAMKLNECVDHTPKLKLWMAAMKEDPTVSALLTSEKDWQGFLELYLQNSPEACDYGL
# Description: First, 100 μl mixture having 2 nM GSTO1, 100 mM Tris (pH 8.0), 1.5 mM EDTA, and 10 mM 2-mercaptoethanol were added into each well of an UV-penetrable 96-well culture plate. Besides, 100 μl buffer having 100 mM Tris (pH 8.0), 1.5 mM EDTA, and 10 mM 2-mercaptoethanol were used as blank control.
# Then, 4NPG were added to each of the aforementioned mixture to a final concentration of 0.5 mM.
# [5] = Homo sapiens, DU-145, read-out: In vitro cytotoxicity assay: GI50 (μM) DU145 cell
# [6] = Homo sapiens, A549, read-out: In vitro cytotoxicity assay: GI50 (μM) A549 cell
# [7] = read-out: In vitro cytotoxicity assay: GI50 (μM) DU145 cell, DU145 cell
# [8] = read-out: In vitro cytotoxicity assay: GI50 (μM) A549 cell, A549 cell
Compound,In vitro cytotoxicity assay: GI50 (μM) KB-Vin cell ([1]; KB-Vin cell) [µM],In vitro cytotoxicity assay: GI50 (μM) KB cell ([2]; KB cell) [µM],In vitro cytotoxicity assay: GI50 (μM) KB-Vin cell [1] [µM],In vitro cytotoxicity assay: GI50 (μM) KB cell [2] [µM],GI50 [3] [µM],GI50 [4] [µM],other results
O=C1C=CC(O)(c2cc(=O)c3c(ccc4ccccc43)o2)C=C1 [Compound main structure],0.674,0.865,,,,,"GI50 [3, 5]: 0.799 µM; GI50 [4, 6]: 0.763 µM"
"CC(=O)O[C@H]1C(=O)[C@@]2(C)[C@H]([C@H](OC(=O)c3ccccc3)[C@]3(O)C[C@H](OC(=O)[C@H](O)[C@@H](NC(=O)c4ccccc4)c4ccccc4)C(C)=C1C3(C)C)[C@]1(OC(C)=O)CO[C@@H]1C[C@@H]2O [Paclitaxel, reference compound]",,,,,,,"GI50 KB-Vin cell (control) ([1]; KB-Vin cell): >1000 nM; GI50 KB cell (control) ([2]; KB cell): 4.64 nM; GI50 ([3]; Homo sapiens, DU-145, read-out: GI50 DU145 cell (control)): 0.003 µM; GI50 ([4]; Homo sapiens, A549, read-out: GI50 A549 cell (control)): 0.00356 µM"
O=C1C=CC(O)(c2cc(=O)c3c(O)cc(O)cc3o2)C=C1 [compound A],,,,,,,"inhibitory effect against GSTO1 enzyme activity (competition with 4NPG, FIG. 1) (GSTO1): slight"
COc1ccc2c(ccc3oc(C4(O)C=CC(=O)C=C4)cc(=O)c32)c1 [compound B],,,,,,,"inhibitory effect against GSTO1 enzyme activity (competition with 4NPG, FIG. 1) (GSTO1): slight"
O=C1C=CC(O)(c2cc(=O)c3c(ccc4cc(OC(=O)N5CCOCC5)ccc43)o2)C=C1 [side chain No. 6],,,0.64,0.607,0.617,0.603,
O=C1C=CC(O)(c2cc(=O)c3c(ccc4cc(OC(=O)N5CCCCC5)ccc43)o2)C=C1 [side chain No. 7],,,0.619,0.615,0.522,0.536,
COc1ccc2c(ccc3oc(C4(O)C=CC(=O)C=C4)cc(=O)c32)c1 [side chain No. 8],0.692,0.871,,,,,"GI50 [3, 7]: 0.707 µM; GI50 [4, 8]: 0.811 µM"
COCOc1ccc2c(ccc3oc(C4(O)C=CC(=O)C=C4)cc(=O)c32)c1 [side chain No. 10],0.766,0.786,,,,,"GI50 [3, 7]: 0.865 µM; GI50 [4, 8]: 0.819 µM"
CC(C)CCOc1ccc2c(ccc3oc(C4(O)C=CC(=O)C=C4)cc(=O)c32)c1 [side chain No. 11],0.269,0.2,,,,,"GI50 [3, 5]: 0.231 µM; GI50 [4, 6]: 0.382 µM"
CC(C)CCCC(C)CCOc1ccc2c(ccc3oc(C4(O)C=CC(=O)C=C4)cc(=O)c32)c1 (centres unmarked) [side chain No. 12],0.335,0.067,,,,,"GI50 [3, 5]: 0.065 µM; GI50 [4, 6]: 0.233 µM"
CCC(C)CCCC(C)CCOc1ccc2c(ccc3oc(C4(O)C=CC(=O)C=C4)cc(=O)c32)c1 (centres unmarked) [side chain No. 13],,,1.883,1.115,1.26,4.27,
CN(C)CCOc1ccc2c(ccc3oc(C4(O)C=CC(=O)C=C4)cc(=O)c32)c1 [side chain No. 14],0.841,0.683,,,,,"GI50 [3, 7]: 0.808 µM; GI50 [4, 8]: 0.754 µM"
CCN(CC)CCOc1ccc2c(ccc3oc(C4(O)C=CC(=O)C=C4)cc(=O)c32)c1 [side chain No. 15],,,1.325,0.644,0.685,0.551,
CC(C)N(CCOc1ccc2c(ccc3oc(C4(O)C=CC(=O)C=C4)cc(=O)c32)c1)C(C)C [side chain No. 16],,,0.682,0.55,0.62,0.584,
O=C1C=CC(O)(c2cc(=O)c3c(ccc4cc(OCCN5CCCCC5)ccc43)o2)C=C1 [side chain No. 17],,,0.675,0.499,0.541,0.483,
O=C1C=CC(O)(c2cc(=O)c3c(ccc4cc(OCCN5CCCC5)ccc43)o2)C=C1 [side chain No. 18],,,1.108,0.552,0.693,0.628,
O=C1C=CC(O)(c2cc(=O)c3c(ccc4cc(O)ccc43)o2)C=C1 [side chain No. 19],0.738,0.944,,,,,"GI50 [3, 7]: 0.709 µM; GI50 [4, 8]: 0.806 µM"
